The target of data set [1] is T1, ARF6 (Homo sapiens, UniProt P62330). The experiment in a line: ARF6 inhibition, biochemical fluorometric nucleotide exchange assay. The text has this: These ARF6 inhibitors were discovered using a high-throughput biochemical, fluorometric nucleotide exchange assay to screen 100,000 compounds from a commercially available compound library. Medicinal chemistry optimization efforts have also been conducted. In some embodiments, the clinical potential of the discovered small molecule ARF6 inhibitors can be limited by poor solubility. Accordingly, the synthesis and development of water soluble prodrugs of ARF6 inhibitors can be advantageous. […]

Data set [2] in a line: Solubility of ARF6 prodrugs in various vehicles (Table 4). The class given is physicochemical.
Data set [3] in a line: PK of NAV-A after IP dosing of NAV-B to mice. As to conditions: six-hour period after IP NAV-B 43 mg/kg. Type of data set: in vivo, mouse. Here is the method: (§1) The PK profile of NAV-A was determined following intravenous (IV) and intraperitoneal (IP) administration of prodrug NAV-B to rats and mice, respectively. […] In this experiment, only the appearance and PK profile of NAV-A was followed, using an established LC/MS method. […] Of note was the very rapid appearance of NAV-A in plasma of the rats receiving NAV-B IV; the highest plasma concentration observed was at five minutes post-dose, the first time point measured. […] Near peak plasma levels of NAV-A were observed within 30 minutes.

Data set [4] deals with Acinetobacter baumannii (AB) HUMC1. The class given is in vivo, mouse. As for the experimental part:
Briefly, CD-1 male mice were made neutropenic with 200 mg/kg cyclophosphamide and 250 mg/kg cortisone acetate (in 0.05% Tween 80) on Days −2 and +3. On Day 0, neutropenic mice were infected with Acinetobacter baumannii (AB) HUMC1 (virulent strain; see Luo G, et al. J Antimicrob Chemother. 2012; 67:1439-45 and Luo G, et al. PloS one. 2012; 7:e29446) via inhalation. Treatment with “NAV-” compound was initiated at three hours post infection.
Mice can be made neutropenic by injecting them with cyclophosphamide (200 mg/kg IP) and cortisone acetate (250 mg/kg, subcutaneously) on day −2 and +3 relative to infection. To induce AB pneumonia, neutropenic mice can be infected by aerosolizing AB into an inhalational chamber for one hour through a nebulizer as previously described (see Luo G, et al. J Antimicrob Chemother. 2012; 67:1439-45). Dosing and frequency of treatment can be dictated by the PK and ALI studies conducted in Example 6. Placebo mice can receive vehicle. […] Treatment can begin three hours after infection and continue through Day +7, and survival of mice (the primary endpoint) can be followed for 28 days post-infection. Each group may comprise 10 mice and each experiment may be repeated once (for a total of 20 mice per treatment group) to detect a three-day difference in survival by the Log Rank test (α=0.05).

Data set [5] concerns LPS-induced acute lung injury (ALI). Briefly: Mouse model of LPS-induced ALI, BALF cell count and BALF protein. The class given is in vivo. As to conditions: for percent reduction in LPS-induced increase in BALF cell count / percent reduction in LPS-induced increase in BALF protein: mean ± SEM. As for the experimental part: LPS was instilled into the trachea of anesthetized mice. […] The efficacy endpoints were total cell counts and total protein in BALF. All studies were conducted using vehicle negative controls and dexamethasone (5 mg/kg IP at T=0 and 6) as a positive control. Data were analyzed by 1-way ANOVA followed by Tukey's multiple comparison test (GRAPHPAD PRISM® software, version 6.05). […] Reductions in BALF total protein were also observed. […]

Data set [6] can be described thus: Solubility in water and PBS pH 7.4 (Tables 1 and 2). Type of data set: physicochemical.
The nature of data set [7]: PK of NAV-A after IV dosing of NAV-B to rats. Type of data set: in vivo, rat. As for the experimental part: as §1
For a further data set, the system named is alkaline phosphatase. Briefly: Alkaline phosphatase substrate. Type of data set: in vitro ADME. As to conditions: metabolized to active metabolite NAV-AAC′.
A further data set in a line: Stability in solution. The class given is physicochemical. As to conditions: room temperature, protected from light.
For data set [8], the system named is multidrug-resistant Pseudomonas aeruginosa (PA). Briefly: Multidrug-resistant Pseudomonas aeruginosa mouse model of pneumonia. As to conditions: NAV-AAR′ 38 and 64 mg/kg subcutaneous once daily for 6 days. The class given is in vivo. As for the experimental part:
NAV-AAR′ is also active in a multidrug-resistant Pseudomonas aeruginosa (PA) mouse model of pneumonia. […] NAV-AAR′ was administered by subcutaneous injection once daily for 6 days. The antibiotic meropenem was ineffective against MDR PA in this model.

The next data set deals with Plasmodium berghei ANKA. The experiment in a line: Mouse model of cerebral malaria. As to conditions: NAV-B 42.75 mg/kg IP daily for 11 days from day 3; 14 days post-infection; dihydrochloride.
The subject of data set [9] is LPS-induced endotoxic shock. As to conditions: LPS 25 mg/kg IP, peptide IV; cited from earlier work.
Data set [10] concerns the target T1, ARF6. As to conditions: HMVEC-D cells; cited from earlier work.
The test system of a further data set is vascular leak. As to conditions: in vivo; cited from earlier work.
In another data set the test system is VE-cadherin. As to conditions: cited from earlier work.
Setting [11] is: Table 4, read-out: ARF6 inhibition IC50.
Setting [12] is: 20 mM Na citrate buffer, pH 3.1, aqueous buffer, kinetic from dmso stock, diluted from 10 mM solution in DMSO, read-out: Solubility (μM) 20 mM Na Citrate, pH 3.1.
The mark [13] stands for this setting: 0.1% Tween 80 in D5W, aqueous with cosolvent or surfactant or cyclodextrin, kinetic from dmso stock, diluted from 10 mM solution in DMSO, read-out: Solubility (μM) 0.1% Tween 80 in D5W.
[14] abbreviates: DPBS, pH 7.4, aqueous buffer, kinetic from dmso stock, diluted from 10 mM solution in DMSO, read-out: Solubility (μM) DPBS, pH 7.4.
Setting [15] is: saline or isotonic, thermodynamic from solid, D5W, prepared from powder, read-out: Solubility (μM) D5W Prepared from powder.
The mark [16] stands for this setting: water, kinetic from dmso stock, diluted from 10 mM solution in DMSO, read-out: Solubility (μM) H2O.
Where [17] appears, read: Table 1, water, read-out: Solubility Water.
Where [18] appears, read: aqueous buffer, Table 1, PBS pH 7.4, read-out: Solubility PBS pH 7.4.
[19] abbreviates: NAV-AAR′ 38 mg/kg or 64 mg/kg intravenous.

Where “and” joins values, the source holds several entries; their conditions need not be identical. Equal entries are not always repeated. Entries after “also recorded” stand apart in the source; their conditions may differ. Structures can show the parent of a compound that is named as a salt. Where two headings read alike, the source gives them in different places. Where no end group is shown, it is not given here. The star is where a group is joined. Myristoyl = CCCCCCCCCCCCCC(=O)*

T1 sequence (P62330 whole entry, species assumed): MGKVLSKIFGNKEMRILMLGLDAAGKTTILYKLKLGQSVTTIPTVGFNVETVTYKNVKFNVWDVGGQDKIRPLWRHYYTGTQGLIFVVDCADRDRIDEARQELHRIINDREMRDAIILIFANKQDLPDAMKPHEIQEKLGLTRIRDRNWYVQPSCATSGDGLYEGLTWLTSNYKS
Description for Plasmodium berghei ANKA: Mice were infected with Plasmodium berghei ANKA on day 0. Treatment was initiated on day 3. […] Surviving mice were sacrificed on day 14.

Regarding `C[C@H](N)C(=O)Oc1cc([N+](=O)[O-])ccc1-c1cc(=O)[nH]c2c(-c3ccc(Cl)cc3)c(Cc3ccccc3)nn12.O=C(O)C(F)(F)F` [Example V, [2-[2-Benzyl-3-(4-chlorophenyl)-5-oxo-4H-pyrazolo[1,5-a]pyrimidin-7-yl]-5-nitro-phenyl] (2S)-2-aminopropanoate trifluoroacetate], the IC50 – broadly, the concentration that inhibits the measured activity by half – on ARF6 [1] (setting [11]) was determined as 1.9 µM. The solubility – broadly, how much of the substance goes into solution per volume – in [2] (setting [12]) was 160 µM; in data set [2] (setting [13]) it was 5.4 µM; in data set [2] (setting [14]), < 1 µM; in data set [2] (setting [15]) it was 20 µM; in [2] (setting [16]), 150 µM.
For `O=c1cc(-c2ccc([N+](=O)[O-])cc2O)n2nc(Cc3ccccc3)c(-c3ccc(Cl)cc3)c2[nH]1` [NAV-A, 2-Benzyl-3-(4-chlorophenyl)-7-(2-hydroxy-4-nitro-phenyl)-4H-pyrazolo[1,5-a]pyrimidin-5-one], on ARF6 [1] (Table 1, read-out: ARF6 IC50), the IC50 was found to be 2.7 µM. Moreover, in data set [3], the “plasma levels of NAV-A” value was “high and sustained plasma levels”. Moreover, the “appearance and weight gain of treated mice” value in [4] (NAV-A 30 mg/kg IP once daily) is listed as “appeared healthy with normal weight gain”. Besides, the survival in data set [4] (NAV-A 30 mg/kg IP once daily for seven days, from 3 h post infection, DMA/PEG300 vehicle) is on record as 50%. Moreover, the “percent reduction in LPS-induced increase in BALF cell count” value in data set [5] (30 mg/kg IP, T = 0) came out at 57 ± 9%; in data set [5] (30 mg/kg IP, T = 3), 55 ± 3%; in data set [5] (60 mg/kg IP, T = 0) it was 95 ± 4%; in data set [5] (60 mg/kg IP, T = 3) it was 91 ± 1%. Also, the “percent reduction in LPS-induced increase in BALF protein” value in data set [5] (30 mg/kg IP, T = 0) came to 36 ± 13%; in [5] (30 mg/kg IP, T = 3) it was 23 ± 12%; in data set [5] (60 mg/kg IP, T = 0), 46 ± 24%; in data set [5] (60 mg/kg IP, T = 3), 55 ± 6%. For the same compound, the “BALF total protein” value in data set [5] (NAV-A IP) was “Reductions”. Moreover, the “total number of cells in BALF” value in data set [5] (NAV-A IP 60 mg/kg (T=0), 30 mg/kg (T=3), 60 mg/kg (T=3)) is recorded as “significant decreases”. In addition, the solubility in data set [6] (setting [17]) turned out to be 35 µM; in [6] (setting [18]), 8 µM. Moreover, in data set [7] (NAV-A after IV NAV-B, rats, first time point measured), the “time of highest plasma concentration observed” value is “five”. The “exposure of NAV-A” value in data set [7] (after administration of NAV-B) is on record as “excellent exposure”.
With `Cc1ccc(-c2c[nH]c3c(-c4ccc(Cl)cc4)c(Cc4ccccc4)nn3c2=O)c(OP(=O)([O-])[O-])c1.[Na+].[Na+]` [NAV-AAR′], the “substrate for alkaline phosphatase” value in the data set on alkaline phosphatase was “substrate for alkaline phosphatase”. Besides, the stable in solution result in “Stability in solution” was “up to 4 months”. In addition, the 50% inhibitory concentration (IC50) on ARF6 [1] (Table 2, read-out: ARF6 IC50) was in the range of 1 to 2 µM; at ARF6 [1] (approximately, read-out: ARF6 IC50) it was 1 to 2 µM. Moreover, the “number of total (nucleated) cells in BALF” value in data set [5] (setting [19]) was “significant reductions; also recorded: decrease”. Also, the “protein concentration in BALF” value in [5] (setting [19]) was “significant reductions; also recorded: decrease”. Besides, the solubility in data set [6] (Table 2, water, read-out: Solubility Water) is > 50 mg/mL; in “Aqueous solubility”, ≤ 50 mg/mL. Besides, the “survival in MDR PA pneumonia” value in [8] is “improve survival; also recorded: increase in survival”.
With `NCCCC[C@H](N)C(=O)Oc1cc([N+](=O)[O-])ccc1-c1cc(=O)[nH]c2c(-c3ccc(Cl)cc3)c(Cc3ccccc3)nn12` [NAV-B, [2-[2-benzyl-3-(4-chlorophenyl)-5-oxo-4H-pyrazolo[1,5-a]pyrimidin-7-yl]-5-nitro-phenyl] (2S)-2,6-diaminohexanoate dihydrochloride], the half-inhibitory concentration (IC50) was 2.6 µM at ARF6 [1] (Table 1, read-out: ARF6 IC50) and 2.6 µM at ARF6 [1] (setting [11]). The survival in data set [4] (NAV-B 42.75 mg/kg IP once daily for 7 days (equivalent to NAV-A 30 mg/kg), normal saline vehicle) is listed as 90%. The “concentration of cells in BALF” value in data set [5] (NAV-B 42.75 mg/kg IP) was “significant effect”. In addition, the “concentration of protein in BALF” value in [5] (NAV-B 42.75 mg/kg IP) is reported as “significant effect”. Further, the “reduction in LPS-induced BALF cell count” value in data set [5] (NAV-B 42.75 mg/kg IP at T=0 (equivalent to 30 mg/kg NAV-A), FIG. 10A marks a and b, dihydrochloride) is 62% and 100%. Further, the “reduction in BALF cell count” value in [5] (NAV-B 43 mg/kg IP at T=0) is listed as 70%. Besides, the solubility in data set [6] (setting [17]) was 425 µM; in data set [6] (setting [18]), 1.7 µM; in the data set “Aqueous solubility” (acidic aqueous media, aqueous buffer), > 50 mg/mL; in data set [2] (setting [12]), 280 µM; in data set [2] (setting [13]) it was 42 µM; in data set [2] (setting [14]), 1 µM. The solubility worked out at 14000 µM in data set [2] (setting [15]) and 400 µM in [2] (setting [16]). In the data set with Plasmodium berghei ANKA, the “survival of malaria-infected mice” value is “reduced mortality; also recorded: significant improvement in survival”.
For `C[C@@H](O)[C@H]1C(=O)N2C(C(=O)O)=C(S[C@@H]3CN[C@H](C(=O)N(C)C)C3)[C@H](C)[C@H]12` [meropenem, reference compound], in data set [8], the “survival in MDR PA pneumonia” value was “ineffective”.
In the case of “MyrARF6 2-13: myristoylated peptide composed of amino acids 2-13 of ARF6, understood to inhibit ARF nucleotide exchange (Myristoyl-GKVLSKIFGNKE; UniProt P62330 2-13, looked up, fragment)”, in data set [9], the survival during endotoxemia result is on record as “enhanced survival”. The ARF6 activation entry with ARF6 [10] was “reduced ARF6 activation”. The “leak of Evans blue dye from the blood into lungs and kidneys” value in the data set on vascular leak is reported as “prevented the leak”. Besides, in the data set with VE-cadherin, the “VE-cadherin at cell junctions” value is recorded as “increased VE-cadherin at cell junctions”.

The values above are taken from US11414442B2, “ARF6 inhibitors and related methods” (Navigen, Inc., priority 2017, dated 2022).
